Experimental findings from US7276533B2, “Compositions useful for the treatment of pathologies responding to the activation of PPAR-gamma receptor” (Sigma-Tau Industrie Farmaceutiche Riunite S.p.A., priority 2001, dated 2007) are described below.

For test [1], the target named is T1, PPARγ receptor (Homo sapiens, UniProt P37231).
T1 sequence (P37231 1-505): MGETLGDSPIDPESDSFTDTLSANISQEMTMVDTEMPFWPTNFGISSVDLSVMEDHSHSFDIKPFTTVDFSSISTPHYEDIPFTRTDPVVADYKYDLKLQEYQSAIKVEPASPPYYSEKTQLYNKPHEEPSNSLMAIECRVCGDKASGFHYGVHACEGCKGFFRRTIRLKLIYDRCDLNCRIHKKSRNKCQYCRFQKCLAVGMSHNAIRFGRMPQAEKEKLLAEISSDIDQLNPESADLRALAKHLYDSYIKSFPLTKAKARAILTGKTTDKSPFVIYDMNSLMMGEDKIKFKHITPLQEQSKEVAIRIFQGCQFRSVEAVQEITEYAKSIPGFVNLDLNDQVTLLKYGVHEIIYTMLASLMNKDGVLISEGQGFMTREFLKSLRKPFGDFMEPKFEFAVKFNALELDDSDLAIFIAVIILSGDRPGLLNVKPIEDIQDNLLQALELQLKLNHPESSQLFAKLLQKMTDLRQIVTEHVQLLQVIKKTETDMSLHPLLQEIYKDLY
The test can be described thus: Activation of PPARγ: cellular transfection with PPAR-γ plasmid and TK-PPAR-Reluc luciferase reporter vector. Conditions: NIH-3T3 murine fibroblasts, 24 hour-treatment, spirolaxine 40 nM, FIG. 1. Background: In a reporter assay the amount or activity of a reporter protein is the signal.
Protocol: The activation of the expression of the luciferase was put into evidence by transfecting the NIH-3T3 murine fibroblasts with the PPAR-γ plasmid and the TK-PPAR-Reluc reporter vector; the luciferase activity was measured after 24 hour-treatment with the spirolaxine at a concentration of 40 nM.

Test [2] deals with NB4 cells (human promyelocitic leukemia). The test can be described thus: Differentiation of NB4 cells into granulocytes, NBT dye reduction, spectrophotometric assay at 540 nm. Particulars: 2-3 days, FIG. 2. Type of test: cell-based. On the procedure: The pro-differentiative activity of the spirolaxine (ST 1397) and the ATRA, both alone and in association, was assessed in this experimental model.
NB4 cells were grown in 25 cm^2 flasks at a density of approx 100.000 cells/ml in 5 ml of RPMI 1640 culture with 10% fetal calf serum (FCS). After one day, the cells were treated with ATRA at a concentration of 10^−7 M, or with ST 1397 at doses of 0,1, 0,5 and 1 μM, or with equivalent volumes of the two compounds in association. Then, the cells were put into the incubator for 2-3 days, without replacing the culture medium.
At the end of the second or third day of treatment, the differentiation of the cells into granulocytes was measured by the NBT dye reduction and the spectrophotomectric assay of the samples.
The retinoic acid was dissolved in the culture medium with a solution of DMSO 1 mM. Control cultures were treated with equivalent volumes of DMSO, since this compound (DMSO) can be differentiating in certain experimental conditions.
To measure the differentiative effect, 500.000 cells have been gathered from each sample, centrifuged and re-suspended in 1 ml of RPMI 1640 culture with 10% serum, 1 mg/ml of nitroblue tetrazolium (NBT) and 100 ng of PMA. The re-suspended cells were incubated at 37° C. for 20-60 min. […]
The samples were sonicated to complete lysis and then read with a spectrophotometer at a wave length of 540 nm.

SMILES strings stand for the structures.

Consider `COc1cc(O)cc2c1C(=O)OC2CCCCCC1CCCC2(CCC(C)O2)O1` (stereo not drawn) [spirolaxine], for which the “luciferase activity mediated by the TK-PPAR-Reluc reporter vector (index of activation of the receptor) versus control” value in test [1] was “seven times higher than the control”. Further, the “differentiation in NB4 cells (NBT reduction)” value in test [2] (ST 1397 alone at 0,1, 0,5 and 1 μM) is “does not induce differentiation”. Consider `CC1=C(/C=C/C(C)=C/C=C/C(C)=C/C(=O)O)C(C)(C)CCC1` [ATRA, all-trans retinoic acid, reference compound], for which, in test [2] (ATRA alone at 10^−7 M), the “differentiation in NB4 cells (NBT reduction)” value is recorded as “differentiative effect was already well known”.
